Results taken from US20230255954A1, “INTERLEUKIN 33 (IL-33) INHIBITION FOR TREATMENT OF CANCER, FIBROSIS AND INFLAMMATION” (The General Hospital Corporation, priority 2020, published 2023).

B1: HA-IL-33 cytokine domain (other, mouse, UniProt Q8BVZ5 109-266, looked up)
chain: SIQGTSLLTQSPASLSTYNDQSVSFVLENGCYVINVDDSGKDQEQDQVLLRYYESPCPASQSGDGVDGKKLMVNMSPIKDTDIWLHANDKDYSVELQRGDVSPPEQAFFVLHKKSSDFVSFECKNLPGTYIGVKDNQLALVEEKDESCNNIMFKLSKI
notes: domain: cytokine domain; Overexpressed in Pam212 cells for 24 hours; localized to the cytoplasm; not shown: HA tag from the pcDNA3.1-HA vector

Experiments:
[1] = test system: mouse Il33 gene promoter (IL-33 promoter-luci reporter); assay: IL-33 promoter luciferase screen of FDA-approved Drug Library; assay type: cell-based; conditions: 10 μM, 24 hours; IL-33 promoter-luci vs control-luci stable Pam212 cells; 1056 molecules tested
Protocol: Pam212 cells were grown at 37° C. in DMEM (Thermo Fisher Scientific, Waltham, Mass., catalog no. 11995065) supplemented with 10% fetal bovine serum (Thermo Fisher Scientific, catalog no. 26140079), 1× penicillin-streptomycin-glutamine (Thermo Fisher Scientific, catalog no. 10378016), 1×MEM non-essential amino acids solution (Thermo Fisher Scientific, catalog no. 11140050), 1×HEPES (Thermo Fisher Scientific, catalog no. 15630080) and 0.1% 2-Mercaptoethanol (Thermo Fisher Scientific, catalog no. 21985023). PyMT cell lines (derived from a primary breast tumor of MMTV-PyMrg mouse on a C57BL/6 background) were grown at 37° C. in RPMI Medium 1640 (Thermo Fisher Scientific, catalog no. 11875093) supplemented with 10% fetal bovine serum, 1× penicillin-streptomycin-glutamine and 0.1% 2-Mercaptoethanol. IL-33 promoter-luci vector (GeneCopoeia, Rockville, Md., catalog no. MPRM3494-PG02) or Control-luci vector (deletion form of IL-33 promoter region from IL-33 promoter-luci vector) or Poly (I:C) (Invivogen, San Diego, Calif., catalog no. tlrl-pic) in Pam212 cells were performed using Lipofectamine 2000 (Thermo Fisher Scientific, catalog no. 11668019) according to the manufacturer's instructions.
After transfection of plasmids in Pam212 cells, cells were incubated with 3 μg/ml of puromycin (Invivogen, San Diego, Calif., catalog no. ant-pr-1) for positive transfected cell selection. After following 2 days, medium was changed new puromycin contained medium for further selection. After following 2 days, cells were moved to new plate with puromycin contained medium. Puromycin selection was repeated for five times more.
1000 stable cells were seed to 384 wells (Corning, Glendale, Ariz., catalog no. 3570) and each of plate was incubated 24 hours. Following day, 10 μM of FDA-approved Drug Library compounds (Selleckchem, Houston, Tex., catalog no. L1300) were added to each well. After 24 hours, 5 μL of luciferase buffer from Pierce Gaussia luciferase glow assay kit (Thermo Fisher Scientific, Waltham, Mass., catalog no. 16160) were added each well and incubated for 5 min. Each plate was read and measured with luminescence by EnVision 2014 plate reader (Perkin Elmer, Waltham, Mass., catalog no. 2014 EnVision).
To make small molecule screening platform, we generated both IL-33 promoter-luci and control-luci over-expressed stable epithelial cell line (Pam212) by multiple puromycin selection strategy (FIG. 10A). To find molecules that can inhibit IL-33 expression, we tested 1056 FDA-approved small molecules against our reporter cell line. […] To find bona fide inhibitors of IL-33, we checked RNA level of Il33 by qPCR in cells treated with inducer of IL-33 expression, Poly (I:C). After cells were treated by Poly (I:C), RNA level of Il33 was increased compared to carrier group. However, Il33 RNA level was decreased by pitavastatin and tropisetron in Poly I:C-treated cells (FIGS. 10C and D). […] Finally, endogenous IL-33 protein level was decreased after treatment with pitavastatin in a dose-dependent manner (FIG. 10F). Therefore, pitavastatin is a small inhibitor molecule of IL-33.

[2] = test system: Il33 expression induced by Poly (I:C) in Pam212 cells; assay: Il33 RNA by qPCR in Poly (I:C)-treated Pam212 cells; assay type: cell-based, mouse
Protocol: (§1) Pam212 cells were grown at 37° C. in DMEM (Thermo Fisher Scientific, Waltham, Mass., catalog no. 11995065) supplemented with 10% fetal bovine serum (Thermo Fisher Scientific, catalog no. 26140079), 1× penicillin-streptomycin-glutamine (Thermo Fisher Scientific, catalog no. 10378016), 1×MEM non-essential amino acids solution (Thermo Fisher Scientific, catalog no. 11140050), 1×HEPES (Thermo Fisher Scientific, catalog no. 15630080) and 0.1% 2-Mercaptoethanol (Thermo Fisher Scientific, catalog no. 21985023). […]
(§2) Mouse dorsal skin samples were homogenized and lysed in RLT lysis solution (QIAGEN, catalog no. 79216)/0.1% MeOH using Mini-BeadBeater-8 (BioSpec Products, Inc., Bartlesville, Okla.). Total RNA was extracted using an RNeasy micro kit and quantified using NanoDrop ND-1100 (NanoDrop Technologies, Wilmington, Del.). cDNA samples were synthesized from 1 μg of total RNA using Invitrogen SuperScripts III Reverse Transcriptase (Thermo Fisher Scientific, catalog no. 18080085). Expression levels of all cDNA samples were determined with LightCycler 480 system (Roche Molecular Systems Inc., Pleasanton, Calif.) using TaqMan Universal Master Mix II (Thermo Fisher Scientific, catalog no. 44-400-40). […]

[3] = test system: endogenous Il33 expression in PyMT breast cancer cell line; assay: Endogenous Il33 RNA in PyMT breast cancer cell line; assay type: cell-based, mouse
Protocol: as §1, §2

[4] = target: T1, RUNX2 transcription factor (mouse, UniProt Q08775 1-607, limits assumed); assay: immunoprecipitation with anti-IL-33 antibody from transfected Pam212 lysate, immunoblot for RUNX2
T1 construct: Detected by immunoblot (anti-RUNX2 clone D1L7F) after immunoprecipitation of IL-33; The species follows from the mouse cell lines; also called endogenous RUNX2
Protocol: (G) Immunoblot for interaction between nuclear IL-33 and RUNX2. After Pam212 cells were transfected with IL-33 full length or cytokine domain for 24 hours, cell lysates were subjected to immunoprecipitation with anti-IL-33 antibody followed by immunoblot analysis.
Cell lysates were prepared in buffer-A consisting of 50 mM Tris-HCL (pH 8.0), 150 mM NaCl, 0.5% NP-40 and 1× protease inhibitor cocktail. After confirming the concentration of total proteins, the cell lysates were incubated with IL-33 (Nessy-1) overnight at 4° C. and incubated with 30 μL of 50% slurry of protein A-conjugated Sepharose (Cell Signaling Technology, Danvers, Mass., catalog no. 9863S) for the next 2 hours. The samples were precipitated, washed three times with buffer-A containing 300 mM NaCl. Samples were added to 25 μL SDS sampling buffer (Boston Bioproducts, catalog no. BP-111R) and boiled at 95° C. for 10 min. Samples were subjected to SDS-polyacrylamide gel electrophoresis followed by immunoblot analysis.

T1 sequence (Q08775 whole entry): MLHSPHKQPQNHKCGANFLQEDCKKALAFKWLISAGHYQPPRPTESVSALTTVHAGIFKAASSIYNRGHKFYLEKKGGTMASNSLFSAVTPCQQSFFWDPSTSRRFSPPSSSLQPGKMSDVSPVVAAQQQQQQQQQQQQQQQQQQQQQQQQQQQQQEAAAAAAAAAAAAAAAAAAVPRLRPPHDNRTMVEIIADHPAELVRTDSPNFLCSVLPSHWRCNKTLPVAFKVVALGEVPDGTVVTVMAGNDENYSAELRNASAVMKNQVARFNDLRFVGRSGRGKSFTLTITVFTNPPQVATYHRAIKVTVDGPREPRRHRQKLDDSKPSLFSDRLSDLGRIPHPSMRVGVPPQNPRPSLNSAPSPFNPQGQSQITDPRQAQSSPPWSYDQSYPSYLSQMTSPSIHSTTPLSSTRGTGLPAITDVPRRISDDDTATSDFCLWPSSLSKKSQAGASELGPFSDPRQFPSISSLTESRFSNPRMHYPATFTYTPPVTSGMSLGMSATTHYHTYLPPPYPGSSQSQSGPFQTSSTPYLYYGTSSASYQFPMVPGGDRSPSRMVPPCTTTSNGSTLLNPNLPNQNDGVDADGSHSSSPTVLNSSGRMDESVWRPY

Molecule	IL-33/Control luminescence ratio (inhibitory effect against IL-33 reporter) [1]	Il33 RNA level [2]	endogenous Il33 RNA level [3]	binding result [4]
CC1(C)[C@@H](O[C@H]2O[C@H](C(=O)O)[C@@H](O)[C@H](O)[C@H]2O[C@@H]2O[C@H](C(=O)O)[C@@H](O)[C@H](O)[C@H]2O)CC[C@]2(C)[C@H]3C(=O)C=C4[C@@H]5C[C@@](C)(C(=O)O)CC[C@]5(C)CC[C@@]4(C)[C@]3(C)CC[C@@H]12 [ammonium glycyrrhizinate]	small molecule candidates	–	–	–
CCCCCCCCCCCCCCCC[N+](C)(C)C [cetrimonium bromide]	small molecule candidates	–	–	–
CCCSc1nc(N[C@@H]2C[C@H]2c2ccc(F)c(F)c2)c2nnn([C@@H]3C[C@H](OCCO)[C@@H](O)[C@H]3O)c2n1 [ticagrelor]	small molecule candidates	–	–	–
CN1[C@@H]2CC[C@H]1C[C@@H](OC(=O)c1c[nH]c3ccccc13)C2 [tropisetron]	small molecule candidates	decreased	inhibitory effect	–
B1	–	–	–	no binding
